What was measured:
[1] = test system: homozygous A122T/A122T lines; assay: field phytotoxicity trial North Dakota 2006 (Example 3); assay type: in vivo, sunflower; details: 200 g ai/ha of imazamox, 21 DAT
Description: (§1) • Spray volume: 10 gallons per acre (GPA) (or 100 liters/ha) for backpack sprayer or 20 GPA (or 200 liters/ha) for tractor mounted boom • Growth Stage at Herbicide Application: 2-4 leaves • Entry 15 (WT Maintainer line) was left unsprayed in all treatment blocks.
(§2) Phytotoxicity ratings were assessed at 7 and 21 days following herbicide application.
(§3) The data was subjected to an ANOVA analysis and the means from the 3 repetitions are presented in Table 7 (phytotoxicity at 7 days post-treatment) and Table 8 (phytotoxicity at 21 days post-treatment).

[2] = test system: heterozygous A205V/A122T lines; assay: as above; assay type: in vivo, sunflower; details: 200 g ai/ha of imazamox, 21 DAT
Description: as §1, §2, §3

[3] = test system: homozygous A205V/A205V lines; assay: as above; assay type: in vivo, sunflower; details: 200 g ai/ha of imazamox, 21 DAT
Description: as §1, §2, §3

[4] = test system: AHAS enzyme of A122T homozygous (GM40); assay: AHAS enzyme activity assay, Set 2; assay type: biochemical, sunflower; details: Set 2 (FIG. 14)
Description: (§4) Twelve greenhouse grown sunflower plants from each of the lines depicted in Table 21 were bulked and subjected to an AHAS enzyme activity assay via the method of Singh et al. (1988) Anal. Biochem. 171:173-179. Each activity assay was repeated twice. Due to the large number of samples, the experiment was split into two sets (Table 21).
(§5) Young, actively growing leaves, from four week old plantlets, were ground in a mortar and pestle with liquid N2 and extracted with a buffer composed of 100 mM Pyruvate, 200 mM KH2PO4, 20 mM MgCl2, 2 mM thiamine pyrophosphate and […]. Plant extracts were then spun through a 10 mL Zeba™ TM desalt spin column (Pierce #89893) as per the manufacturer's recommendation. The inhibition assay was performed as described by Singh et al. (1988) Anal. Biochem. 171:173-179. Assays were conducted in a 96-well format. Fifty μl of inhibitor was added to each well containing 50 μl of soluble protein extract to give final concentrations of 0.78, 1.56, 3.125, 6.25, 12.5, 25, 50 and 100 μM imazamox or 0.78, 1.56, 3.125, 6.25, 12.5, 25, 50 and 100 μM imazapyr. Zero herbicide controls were also included for each line. Reactions were processed as outlined by Singh et al. (1988) Anal. Biochem. 171:173-179. Absorbance was measured at 530 nm. AHAS activity, expressed as the mean of the absorbance values for each treatment, was presented as a percentage of the mean of the zero-herbicide controls.

[5] = test system: AHAS enzyme of A205V homozygous (B7imi, IMISUN1); assay: AHAS enzyme activity assay, Set 2; assay type: biochemical, sunflower; details: Set 2 (FIG. 14)
Description: as §4, §5

[6] = test system: AHAS enzyme of A122T heterozygous hybrid (cmsBTK47 × R731); assay: AHAS enzyme activity assay, Set 2; assay type: biochemical, sunflower; details: Set 2 (FIG. 14)
Description: as §4, §5

[7] = test system: heterozygous A205V entries; assay: field phytotoxicity trial North Dakota 2006 (Example 3); assay type: in vivo, sunflower; details: 160 g ai/ha of imazapyr, 21 DAT
Description: as §1, §2, §3

[8] = test system: control line HA425 (A205V); assay: imazapyr challenge of segregating population (Example 1); assay type: in vivo, sunflower; details: 320 g a.i. ha-1
Description: To determine the phenotypic interactions of the resistance gene A122T and the Imr1 gene (A205V) already described in IMI-R sunflowers (HA425), F1, F2 and BC1F1 populations from the cross GM40 (A122T)/HA425 (A205V) were evaluated at two herbicide applications rates (80 and 320 g. a. i. Ha^−1 of imazapyr). […] When F2 and BC1F1 populations were scored at the higher herbicide rate (320 g. a. i. Ha-1), which discriminates both parents, segregation for susceptibility was observed. Only two phenotypic classes could be detected, a resistant class with plants without any injury or slight symptoms and a susceptible phenotype that was killed like the control line HA425.

COCc1cnc(C2=NC(C)(C(C)C)C(=O)N2)c(C(=O)O)c1 (centres unmarked) [imazamox] was tested, and the phytotoxicity [1] was 3-5%, the phytotoxicity [2] was 2-3% and the phytotoxicity [3] was 15-22%. The “AHAS activity, % of untreated control” value ([4]; 50 μM) was 63%, the “AHAS activity, % of untreated control” value ([4]; 100 μM) was 60% and the “AHAS activity, % of untreated control” value ([5]; 50 μM) was 30%. The “AHAS activity, % of untreated control” value ([5]; 100 μM) was 26%, the “AHAS activity, % of untreated control” value ([6]; 50 μM) was 30% and the “AHAS activity, % of untreated control” value ([6]; 100 μM) was 30%.

With CC(C)C1(C)N=C(c2ncccc2C(=O)O)NC1=O (centres unmarked) [imazapyr] the phytotoxicity [7] was 20-43% and the “outcome of herbicide application” value [8] was “killed”.

Source: US20150148234A1, “HERBICIDE-RESISTANT SUNFLOWER PLANTS WITH MULTIPLE HERBICIDE RESISTANT ALLELES OF AHASL1 AND METHODS OF USE” (NIDERA S.A., priority 2013, published 2015)
